Results as given in paper PMC7914897, “Cytotoxic Potential of a-Azepano- and 3-Amino-3,4-SeCo-Triterpenoids” (International Journal of Molecular Sciences, 2021).
Read-outs that look alike come from different tables or passages of the source.

Tests used:
SW-620 (Colon cancer) = assay: NCI-60 screen (SRB, 48 h); conditions: Homo sapiens
ACHN (Renal cancer) = assay: NCI-60 screen (SRB, 48 h); conditions: Homo sapiens
[1] = test system: NCI-H460 (NSC lung cancer); assay: NCI-60 screen (SRB, 48 h); conditions: Homo sapiens
DU-145 (Prostate cancer) = assay: NCI-60 screen (SRB, 48 h); conditions: Homo sapiens
UACC-62 (Melanoma) = assay: NCI-60 screen (SRB, 48 h); conditions: Homo sapiens
SK-MEL-2 (Melanoma) = assay: NCI-60 screen (SRB, 48 h); conditions: Homo sapiens
SNB-75 (CNS cancer) = assay: NCI-60 screen (SRB, 48 h); conditions: Homo sapiens
[2] = test system: NCI-H226 (NSC lung cancer); assay: NCI-60 screen (SRB, 48 h); conditions: Homo sapiens
Breast cancer subpanel = assay: NCI-60 screen, subpanel; conditions: Homo sapiens
Renal Cancer subpanel = assay: NCI-60 screen, subpanel; conditions: Homo sapiens
[3] = test system: NCI-H322M (NSC lung cancer); assay: NCI-60 screen (SRB, 48 h); conditions: Homo sapiens
A498 (Renal cancer) = assay: NCI-60 screen (SRB, 48 h); conditions: Homo sapiens
MCF7 (Breast cancer) = assay: NCI-60 screen (SRB, 48 h); conditions: Homo sapiens
HOP-62 (NSC lung cancer) = assay: NCI-60 screen (SRB, 48 h); conditions: Homo sapiens
SK-OV-3 (Ovarian cancer) = assay: NCI-60 screen (SRB, 48 h); conditions: Homo sapiens
UO-31 (Renal cancer) = assay: NCI-60 screen (SRB, 48 h); conditions: Homo sapiens
HCC-2998 (Colon cancer) = assay: NCI-60 screen (SRB, 48 h); conditions: Homo sapiens
RXF 393 (Renal cancer) = assay: NCI-60 screen (SRB, 48 h); conditions: Homo sapiens
[4] = test system: panel of approximately 60 cancer cell lines; assay: NCI-60 screen (SRB, 48 h), full panel
NSC lung cancer subpanel = assay: NCI-60 screen, subpanel; conditions: Homo sapiens
PC-3 (Prostate cancer) = assay: NCI-60 screen (SRB, 48 h); conditions: Homo sapiens
Ovarian Cancer subpanel = assay: NCI-60 screen, subpanel; conditions: Homo sapiens
Melanoma subpanel = assay: NCI-60 screen, subpanel; conditions: Homo sapiens
OVCAR-3 (Ovarian cancer) = assay: cells; conditions: Homo sapiens
LOX IMVI (Melanoma) = assay: NCI-60 screen (SRB, 48 h); type: cell-based; conditions: Homo sapiens
COLO 205 (Colon cancer) = assay: NCI-60 screen (SRB, 48 h)
M14 (Melanoma) = assay: NCI-60 screen (SRB, 48 h); conditions: Homo sapiens
BT-549 (Breast cancer) = assay: NCI-60 screen (SRB, 48 h); type: cell-based; conditions: Homo sapiens

CC(C)=C1CCC=C2CC[C@]3(C)[C@H](CC[C@@H]4[C@@]5(C)CCCNC(C)(C)[C@@H]5CC[C@]43C)[C@H]21 [Compound 9] showed a GI50 (SW-620 (Colon cancer); SW-620) of 1.66 µM, an IC (TGI) (SW-620 (Colon cancer); SW-620, 48 h, read-out: TGI) of 3.23 µM and a GI50 (ACHN (Renal cancer)) of 1.76 µM. The IC (TGI) (ACHN (Renal cancer); 48 h, read-out: TGI) was 3.14 µM, the CC50 (ACHN (Renal cancer); read-out: LC50) was 5.62 µM and the GI50 ([1]; NCI-H460) was 1.48 µM. The IC (TGI) ([1]; NCI-H460, 48 h, read-out: TGI) was 3.09 µM, the CC50 ([1]; NCI-H460, read-out: LC50) was 6.45 µM and the GI50 (DU-145 (Prostate cancer); DU-145) was 1.98 µM. The IC (TGI) (DU-145 (Prostate cancer); DU-145, 48 h, read-out: TGI) was 3.55 µM, the CC50 (DU-145 (Prostate cancer); DU-145, read-out: LC50) was 6.38 µM and the GI50 (UACC-62 (Melanoma); UACC-62) was 1.77 µM. The IC (TGI) (UACC-62 (Melanoma); UACC-62, 48 h, read-out: TGI) was 3.22 µM, the CC50 (UACC-62 (Melanoma); UACC-62, read-out: LC50) was 5.85 µM and the GI50 (SK-MEL-2 (Melanoma); SK-MEL-2) was 1.81 µM. The IC (TGI) (SK-MEL-2 (Melanoma); SK-MEL-2, 48 h, read-out: TGI) was 3.48 µM, the CC50 (SK-MEL-2 (Melanoma); SK-MEL-2, read-out: LC50) was 6.69 µM and the GI50 (SNB-75 (CNS cancer); SNB-75) was 1.98 µM. The IC (TGI) (SNB-75 (CNS cancer); SNB-75, 48 h, read-out: TGI) was 3.84 µM, the CC50 (SNB-75 (CNS cancer); SNB-75, read-out: LC50) was 7.44 µM and the GI50 ([2]; NCI-H226) was 1.79 µM. It also gave an IC (TGI) ([2]; NCI-H226, 48 h, read-out: TGI) of 3.54 µM, an IC (TGI) (Breast cancer subpanel; 48 h, read-out: TGI MG_MID) of 3.49 µM and a GI50 (Breast cancer subpanel; read-out: GI50 MG_MID) of 1.72 µM. The CC50 (Breast cancer subpanel; read-out: LC50 MG_MID) was 7.06 µM, the IC (TGI) (Renal Cancer subpanel; 48 h, read-out: TGI MG_MID) was 3.25 µM and the GI50 (Renal Cancer subpanel; read-out: GI50 MG_MID) was 1.72 µM. The CC50 (Renal Cancer subpanel; read-out: LC50 MG_MID) was 6.03 µM, the GI50 [3] was 1.68 µM and the IC (TGI) ([3]; 48 h, read-out: TGI) was 3.07 µM. The CC50 ([3]; read-out: LC50) was 5.61 µM, the GI50 (A498 (Renal cancer); A498) was 1.87 µM and the IC (TGI) (A498 (Renal cancer); A498, 48 h, read-out: TGI) was 3.6 µM. It also gave a CC50 (A498 (Renal cancer); A498, read-out: LC50) of 6.93 µM, a GI50 (MCF7 (Breast cancer); MCF7) of 1.77 µM and an IC (TGI) (MCF7 (Breast cancer); MCF7, 48 h, read-out: TGI) of 3.54 µM. For the same molecule, the GI50 (HOP-62 (NSC lung cancer); HOP-62) was 1.7 µM, the IC (TGI) (HOP-62 (NSC lung cancer); HOP-62, 48 h, read-out: TGI) was 3.25 µM and the GI50 (SK-OV-3 (Ovarian cancer); SK-OV-3) was 1.89 µM. For the same molecule, the IC (TGI) (SK-OV-3 (Ovarian cancer); SK-OV-3, 48 h, read-out: TGI) was 3.5 µM, the CC50 (SK-OV-3 (Ovarian cancer); SK-OV-3, read-out: LC50) was 6.46 µM and the GI50 (UO-31 (Renal cancer); UO-31) was 1.47 µM. The IC (TGI) (UO-31 (Renal cancer); UO-31, 48 h, read-out: TGI) was 2.82 µM, the CC50 (UO-31 (Renal cancer); UO-31, read-out: LC50) was 5.42 µM and the GI50 (HCC-2998 (Colon cancer); HCC 2998) was 1.74 µM. For the same molecule, the IC (TGI) (HCC-2998 (Colon cancer); HCC 2998, 48 h, read-out: TGI) was 3.19 µM, the GI50 (RXF 393 (Renal cancer); RXF 393) was 1.61 µM and the IC (TGI) (RXF 393 (Renal cancer); RXF 393, 48 h, read-out: TGI) was 3.1 µM. For the same molecule, the CC50 (RXF 393 (Renal cancer); RXF 393, read-out: LC50) was 5.98 µM, the “Positive Cytostatic Effect (cell lines with percent growth 0 to 50 / total)” value ([4]; 1 dose 10 µM) was 15/58 and the “Positive Cytotoxic Effect (cell lines with percent growth < 0 / total)” value ([4]; 1 dose 10 µM) was 24/58. The “number of cancer cell lines the compound was active against” value ([4]; 1 dose 10 µM) was 36 cell lines, the activity at 10 µM ([4]; Homo sapiens, 48 h, read-out: Mean Growth, %) was 13.6% and the activity at 10 µM ([4]; Homo sapiens, 48 h, read-out: Range of Growth, %) was -100 to 107%. The IC (TGI) ([4]; Homo sapiens, 48 h, read-out: TGI MG_MID60, average over all cell lines) was 3.35 µM, the GI50 ([4]; Homo sapiens, read-out: GI50 MG_MID60) was 1.75 µM and the GI50 ([4]; Homo sapiens, read-out: GI50 against all human tumor cell lines) was < 3 µM. It also gave a GI50 ([4]; Homo sapiens, read-out: GI50 against the most sensitive cell lines) of 0.2 to 0.94 µM, a CC50 ([4]; Homo sapiens, read-out: LC50 MG_MID60, average over all cell lines) of 6.43 µM and an IC (TGI) (NSC lung cancer subpanel; 48 h, read-out: TGI MG_MID) of 3.27 µM. The GI50 (NSC lung cancer subpanel; read-out: GI50 MG_MID) was 1.68 µM, the CC50 (NSC lung cancer subpanel; read-out: LC50 MG_MID) was 6.11 µM and the GI50 (PC-3 (Prostate cancer); PC-3) was 1.58 µM. It also gave an IC (TGI) (PC-3 (Prostate cancer); PC-3, 48 h, read-out: TGI) of 3.02 µM, a CC50 (PC-3 (Prostate cancer); PC-3, read-out: LC50) of 5.78 µM and an IC (TGI) (Ovarian Cancer subpanel; 48 h, read-out: TGI MG_MID) of 3.51 µM. For the same molecule, the GI50 (Ovarian Cancer subpanel; read-out: GI50 MG_MID) was 1.86 µM, the CC50 (Ovarian Cancer subpanel; read-out: LC50 MG_MID) was 6.19 µM and the IC (TGI) (Melanoma subpanel; 48 h, read-out: TGI MG_MID) was 3.3 µM. The GI50 (Melanoma subpanel; read-out: GI50 MG_MID) was 1.77 µM, the CC50 (Melanoma subpanel; read-out: LC50 MG_MID) was 6.17 µM and the GI50 (OVCAR-3 (Ovarian cancer); OVCAR-3) was 1.91 µM. The IC (TGI) (OVCAR-3 (Ovarian cancer); OVCAR-3, 48 h, read-out: TGI) was 3.37 µM, the CC50 (OVCAR-3 (Ovarian cancer); OVCAR-3, read-out: LC50) was 5.93 µM and the IC (TGI) (LOX IMVI (Melanoma); 48 h) was 3.01 µM. It also gave an activity at 10 µM (LOX IMVI (Melanoma); 48 h, 1 dose 10 µM, read-out: Growth % of the Most Sensitive Cell Lines) of -100%, a GI50 (LOX IMVI (Melanoma); read-out: GI50) of 1.65 µM and a CC50 (LOX IMVI (Melanoma); read-out: LC50 (the source's name)) of 5.49 µM. The “Growth % of the Most Sensitive Cell Lines” value (COLO 205 (Colon cancer); COLO 205, 1 dose 10 µM) was −93.54%, the GI50 (COLO 205 (Colon cancer); Homo sapiens, COLO 205) was 1.48 µM and the IC (TGI) (COLO 205 (Colon cancer); Homo sapiens, COLO 205, 48 h, read-out: TGI) was 2.97 µM. It also gave a GI50 (M14 (Melanoma); M14) of 1.73 µM, an IC (TGI) (M14 (Melanoma); M14, 48 h, read-out: TGI) of 3.26 µM and a CC50 (M14 (Melanoma); M14, read-out: LC50) of 6.12 µM. It also gave a GI50 (BT-549 (Breast cancer); BT-549) of 1.66 µM, an IC (TGI) (BT-549 (Breast cancer); BT-549, 48 h) of 3.14 µM and a CC50 (BT-549 (Breast cancer); BT-549, read-out: LC50 (the source's name)) of 5.96 µM.
